The test has as its system women with severe chronic bladder pain. Nature of the test: Treatment of pelvic pain of bladder origin with dextroamphetamine sulfate (two case reports). Format: in vivo, human. Conditions: for effect of earlier conventional therapy on bladder pain (patient's claim): before dextroamphetamine sulfate. An excerpt:
Treatment of Pelvic Pain of Bladder Origin with Dextroamphetamine Sulfate.
Two women with severe chronic bladder pain unresponsive to conventional therapy were offered a novel therapy with dextroamphetamine sulfate. In the first patient, the bladder pain started […] in an intermittent manner for six months and then it became daily. The pain was described as a constant feeling of urgency and pain from the urethra to the bladder on walking. They scored an 18 on the pelvic pain and urging/frequency PST. A laparoscopy […] found minimal endometriosis. A cystoscopy was negative as were repeated urine cultures. […] They failed a water load test excreting only 1000 mL urine after standing 4 hours after drinking 1500 mL.
In the second patient, the pain also began intermittently for six months […]. The pain then began occurring daily and was worse with intercourse and for three days premenstrually. The pain was described as a constant feeling of pressure in the bladder with intense pain after urination. Urine cultures were negative and empirical antibiotics provided no relief. They also failed the water load test.
Dextroamphetamine sulfate spansules (10 mg) were given twice daily to the first patient and once daily to the second patient.

Setting [1] is: first patient, spansules 10 mg twice daily.
Where [2] appears, read: second patient, spansules 10 mg once daily.

Structures can show the parent of a compound that is named as a salt.

For `C[C@H](N)Cc1ccccc1` [Dextroamphetamine sulfate, dextroamphetamine sulfate], the “symptom status after being weaned off the drug” value (first patient, after 1.5 years on medication) is on record as “remained symptom free for six months”. Under setting [1], the bladder pain response entry is “pain completely disappeared within two days” and the “time pain free while remaining on medication” value worked out at 1.5 years. For the same molecule, where the note is “second patient, forgot their pills on a short trip”, the “symptoms on interruption and resumption of medication” value is on record as “symptoms returned immediately but then disappeared immediately upon resumption of medication”. Further, under setting [2], the bladder pain response result is “pain decreased immediately and gradually improved daily for one week when it completely disappeared”; the “time remaining pain free” value was “remained pain free for four months”.

For `CCN(CC)CC#CCOC(=O)C(O)(c1ccccc1)C1CCCCC1` (centres unmarked) [ditropan], the “effect of earlier conventional therapy on bladder pain (patient's claim)” value (first patient) is reported as “made it worse”.

As to `CC(C)(C)NC(=O)[C@H]1CC[C@H]2[C@@H]3CC[C@H]4NC(=O)C=C[C@]4(C)[C@H]3CC[C@]12C` [finasteride], under “first patient”, the “effect of earlier conventional therapy on bladder pain (patient's claim)” value is on record as “made it worse”.

Source of the values: patent US20060189698A1, “Treatment of interstitial cystitis” (priority 2005, published 2006).
